Test results reported in patent US9131692B2, “Antibacterial imidazolium compound and antibacterial photocurable thiol-ene compositions comprising the same, and antibacterial polymer coatins prepared therefrom” (Korea Institute of Science and Technology, priority 2013, dated 2015).
Where a name gives a salt, the structure may show the parent alone.

Key:
Format in all cases: cell-based
[1] = test system: Salmonella typhimurium (ATCC 1331); test: MIC test of imidazolium salt
[2] = test system: Moraxella catanhalis (ATCC 25240); test: MIC test of imidazolium salt
[3] = test system: Serratia marcescens (ATCC 27117); test: MIC test of imidazolium salt
various strains = test: MIC test of imidazolium salt, overall statement; conditions: text summary of Table 7; compared with benzoalconium chloride (BKC)

For `C=CCn1cc[n+](CCCCCCCCCCCC)c1` [ADIm(Br), 1-allyl-3-dodecylimidazolium salt], the “ADIm(Br) concentration at which strain has antibiosis” value (shortened to “ADIm(Br) concentration”) [1] was 1000 µg/mL, the “ADIm(Br) concentration” value [2] was 1000 µg/mL and the “ADIm(Br) concentration” value [3] was 1000 µg/mL. For the same molecule, the “antibacterial activity over various strains” value (various strains) was “very excellent antibacterial activity, similar to that of benzoalconium chloride (BKC)”.
